Experimental findings from a melting point compilation (Tetko et al.; mined from patent text by program, amines drawn as free bases though some values may be those of a salt) are described below.

As a reminder, the melting point is the temperature of the solid-liquid transition.

Take `CCS(=O)(=O)N(C)C1CCCOc2c(C)cc(Cl)cc21` (centres undefined): the melting point lay within 141 to 143 °C.
For `O=C1CN(c2ccc(Cl)cc2)C(=O)N1C(=O)c1c(Cl)cccc1Cl` the value was 176 to 180 °C; for `O=C(Nc1cc2c(cc1C(=O)c1ccccc1)OCO2)c1ccccc1`, 195 to 197 °C.
Consider `O=C(Nc1ccc(O)cc1)C(=O)N1CCC(Cc2ccc(F)cc2)CC1`, for which the melting point was in the range of 98 to 100 °C.
With `Cc1c(Cl)sc2[nH]c(=O)c(-c3ccccc3)c(O)c12` the figure was 105 to 107 °C.
For `CCON=C(CC)C1=C(O)CC(c2ccc(NC(C)=O)cc2)CC1=O` (centres undefined) the value was 135 to 136 °C; for `O=c1c2ccccc2nnn1CCN1CCC(c2c[nH]c3ccccc23)CC1`, 171 °C.
With `CNC(=O)NS(=O)(=O)c1ccccc1CCC(F)(F)F` the figure was 176 to 177 °C; with `COC(=O)CN(c1cc2cc(OC)c(=O)oc2cc1OCc1ccccc1)S(N)(=O)=O`, 178 to 179 °C; with `COc1cc(OC)nc(Oc2cccc(O)c2C=O)n1`, 82 °C.
Regarding `O=[N+]([O-])c1ccc(N2C3C4CCC(C4)C32)c2nnoc12` (centres undefined), the melting point lay in the range of 132 to 133 °C.
`Nc1nc2c(s1)CCNCC2` showed a melting point of 150 to 160 °C.
With `O=C(C1=C(c2ccc(O)cc2)CCc2ccccc21)c1ccc(OCCN2CCCCC2)cc1` the figure was 83 to 85 °C; with `CC(C)(C)OCC1CN(c2ccc3ccccc3c2)C(=O)O1` (centres undefined), 112 to 113 °C.
For `CCC(CC)C(=O)Nc1cc(-c2ccccc2)nc(-c2ccccc2)n1` the value was 102 °C.
With `Nc1cncc(NC(=S)NC2CCCCC2)c1` the figure was 114 to 116 °C; with `O=C(Cc1ccc(-c2ccc(C(CC3CCOCC3)c3ccc(S(=O)(=O)C4CC4)cc3)[nH]2)nc1)N1CCOCC1` (centres undefined), 202 to 203 °C; with `Cc1ccc2[nH]c(=O)cc(CCO)c2c1`, 252 to 255 °C.
As to `CNC(=S)C1=C(O)C(C)(C)Oc2ccc([N+](=O)[O-])cc21`, the melting point was in the range of 148 to 149 °C.
For `CCCSc1sc(C(=O)N2CCCC2)c2c1-c1oncc1C(C)(C)C2` the value was 72 to 76 °C; for `CCOC(=O)c1ncn2c1CN=C(NCC(OC)OC)c1sccc1-2`, 134 °C; for `COC(=O)C(=C(C)C)N1CC(NC(=O)COc2ccccc2)C1=O` (centres undefined), 154 to 155 °C.
For `C=CCOc1ccc(COc2ccc(CC(=O)O)cc2Cl)cc1Cl` the value was 132 to 134 °C; for `N#CC1c2ccccc2COc2ccc(Cl)cc21` (centres undefined), 113 to 115 °C; for `CCCCCN(CCC12CC3CC(CC(C3)C1)C2)C(=O)NCCCn1ccnc1`, 97 to 100 °C.
With `COc1ccccc1C(N)=CC#N` the figure was 74 to 75 °C; with `OCCNCCCCCCNCCO`, 75 to 79 °C; with `Cc1cc(C(=O)NCCCCc2ccc(-c3ccc(=O)[nH]n3)cc2)on1`, 236 to 238 °C.
The compound `CN(C)CC1CCc2c(c3cc(C(N)=O)ccc3n2C)C1=O` (centres undefined) returned a melting point of 171 to 173 °C.
`CCc1nn2c(-c3cccnc3)ccnc2c1C#N`: the melting point is 170 to 172 °C.
For `Cc1cc(C)n2nc(S(=O)(=O)Nc3c(F)cccc3F)c(Cl)c2n1` the value was 194 to 196 °C.
For `c1cnc(-c2noc(C3CC3)n2)cn1` the value was 95 to 98 °C; for `COC(CNC(=O)N(N=Cc1ccccc1)c1cc(Cl)c(C(C#N)c2ccc(Cl)cc2)c(Cl)c1)OC` (centres undefined), 190 to 191 °C; for `CC(C)(C)OC(=O)CCN1CCN(CC2CN(c3ccc(C(=N)NC(=O)c4ccccc4)cc3)C(=O)O2)CC1` (centres undefined), 136 to 137 °C.
In turn, `CC1(C)COC(c2ccc(N)cc2)=N1` displayed a melting point of 227 to 230 °C.
For `Nc1ncnc2c1c(-c1cccc(Cl)c1)cn2-c1ccccc1` the value was 173 to 175 °C.
For `O=c1c(Br)c(OCc2ccccc2C(F)(F)F)ccn1Cc1ccccc1` the value was 133 to 134 °C; for `CN1c2ccccc2NC(=S)c2cscc21`, 203 to 204 °C; for `CC(C)(C)OC(=O)[C@H]1C[C@@H](C(=O)OCc2ccccc2)[C@@H](c2ccccc2)N1C(=O)CNC(=O)Nc1cccc(C(=O)OCc2ccccc2)c1` (racemic), 110 °C.
For `CCN(CC)C(C)CNc1ccc(NCC(C)N(CC)CC)c2c1C(=O)c1c(O)ccc(O)c1C2=O` (centres undefined) the value was 126 to 128 °C; for `Cc1cc(NC(=O)C(CS)Cc2ccccc2)c(C)c(C(=O)O)c1` (centres undefined), 180 to 182 °C; for `O=C(Oc1ccccc1O)c1cc(Br)c(Cl)s1`, 145 to 147 °C.
Compound `CS(=O)(=O)c1ccc(-c2cc(C(F)F)nn2-c2ccc(S(N)(=O)=O)cc2)cc1` gave a melting point of 209 to 210 °C.
With `NC(=O)C1CCN(C(=O)CNC(=O)CN2CCCC2=O)CC1` the figure was 217 to 219 °C.
The compound `Cc1ncc(C(=O)NCCOCCO[N+](=O)[O-])s1` returned a melting point of 47 to 48 °C.
With `Cn1c2ccccc2c2oc(C(N)=O)cc(=O)c21` the figure was greater than 295 °C; with `Clc1ccc(OC2CC3CCC(C2)N3Cc2nccs2)cc1Cl` (centres undefined), 123 to 124 °C; with `CC(=O)N1CCc2ccc(C(=O)c3ccccc3)cc2C1`, 110 to 113 °C.
With `CNC(=O)CNC(=O)c1ccc(C)c(-n2c(C)cc(OCc3ccccc3CNC(=O)Nc3cc(C(C)(C)C)nn3-c3ccc(O)c(Cl)c3)c(Cl)c2=O)c1` the figure was 209 to 211 °C; with `Nc1sc2c(c1C(=O)c1ccc(Cl)c3ccccc13)CCC2`, 258 to 260 °C; with `CC(C(=O)O)c1ccc2c(=O)c3ccccc3ccc2c1` (centres undefined), 108 to 110 °C.
`COc1c(N2CCN(C)CC2)c(F)cc2c(=O)c(C(=O)O)cn(C3CC3)c12` yielded a melting point of 221 to 222 °C.
With `O=C(N[C@@H](Cc1ccc(OCc2ccsc2)cc1)C(=O)O)c1cn2cc(-c3ccc(Cl)cc3)ccc2n1` the figure was 203 °C; with `O=C(NCl)c1c(C(F)(F)F)cc(Cl)nc1Cl`, 136 to 138 °C; with `O=S(=O)(N[C@@H]1c2ccccc2CCC[C@H]1O)c1ccccc1` (relative stereo), 128 °C.
With `Cc1c(-c2ccncc2)[nH]c2c1C(=O)CC(c1ccccc1)C2` (centres undefined) the figure was 256 to 257 °C.
With `CCC(CC)O[C@@H]1C=C(C(=O)O)C[C@H](CC=O)[C@H]1NC(C)=O` the figure was 70 to 71 °C; with `CNC(=O)C1=CC2(CCOCC2)Oc2ccc([N+](=O)[O-])cc21`, 183 to 184 °C.
Compound `Cc1nc(N2CCN(c3ccc(F)cc3)CC2)c(C#N)nc1-c1ccccc1` gave a melting point of 117 to 120 °C.
In turn, `CC(C)(O)CCc1cc(F)c2ncc(C(=O)NCc3ccc(Cl)cc3)c(O)c2c1` showed a melting point of 219 to 222 °C.
With `COc1cc(C(=O)/C=C/c2ccc3c(c2)OCO3)cc(OC)c1OC` the figure was 135 °C; with `COc1ccc2nc(C)[nH]c(=O)c2c1Br`, 273 to 274 °C.
For `COc1cccc(-c2cccc3c2S(=O)(=O)NC(C2CCCCC2)N3)c1` (centres undefined) the value was 108 to 115 °C; for `COc1ccc(C=CC(=O)c2c(OC)cc(OC)cc2OC2OC(COC(C)=O)C(OC(C)=O)C(OC(C)=O)C2NC(C)=O)cc1` (centres undefined), 108 to 110 °C; for `O=P(c1ccccc1)(c1ccccc1)c1nc2ccccc2nc1P(=O)(c1ccccc1)c1ccccc1`, 258 to 272 °C.
For `CC1(C)c2cc(NS(C)(=O)=O)ccc2CC2C1CCCN2CC1CCCCC1` (centres undefined) the value was 214 to 217 °C.
Compound `CC1(C)CN(C2CC3(C)C(CCC4C3CCC3(C)C(C(=O)CO)CCC43)CC2O)CCO1` (centres undefined) showed a melting point of 184 to 186 °C.
For `CC(C)(C)OC(=O)N1CCN(C(=O)CI)CC1`, the melting point was 69 to 71 °C.
For `Cc1ccc2c(c1)Oc1ncc(N)cc1C(=O)N2C` the value was 191 to 193 °C; for `CCCN1N=C2C(=Cc3ccccc3)CSCC2C1c1ccccc1` (centres undefined), 111 to 120 °C.
For `CC(Cc1c[nH]c2ccccc12)(NC(=O)OC1C2CC3CC(C2)CC1C3)C(=O)NCCc1ccco1` (centres undefined) the value was 87 to 97 °C.
For `Clc1nsnc1N1CCOCC1` the value was 43 to 45 °C.
Compound `CCCC(=O)Nc1n[nH]c2cc(Cl)ccc12` came in with a melting point of 230 °C.
For `COc1cc2c(cc1OCc1ccccc1)CCCN(Cc1cc(OC)c(OC)c(OC)c1)C2` the value was 44 to 46 °C; for `CCOc1nn(-c2ccc(C(F)(F)F)cn2)cc1CCCOc1ccccc1CC(=O)O`, 83 to 84 °C.
As to `CCOc1ccc(C=Cc2ccc(OC(F)F)cc2)cc1`, the melting point is 177 °C.
With `CCCCCS(=O)(=O)NC(=O)OCc1ccc(OCCCC)cc1Oc1ncc(C(F)(F)F)cc1Cl` the figure was 124 to 126 °C.
In the case of `CC(C)(C)NC(=O)c1ncccc1CCc1ccc(F)cc1`, the melting point lay within 59 to 61 °C.
`COc1ccc(F)cc1C(C)(C)CC(O)(Cc1ccccn1)C(F)(F)F` (centres undefined) displayed a melting point of 94 to 96 °C.
For `CC(C)(C)OC(=O)N1CCOS1(=O)=O` the value was 122 °C; for `CN(C)S(=O)(=O)c1ccc(Cl)c(-c2csc(=Nc3ccc(O)cc3)n2C)c1`, 221 to 224 °C.
With `CCCOc1c(C=O)c(=O)n(C)c(=O)n1C`, the melting point fell in the range of 57 to 58 °C.
With `COC(=O)c1cnc(SC)n1C(c1ccccc1)c1ccccc1` the figure was 118 °C; with `CC(=O)OC(c1ccc(Cl)c(Cl)c1)C(Cl)(Cl)Cl` (centres undefined), 85 to 86 °C.
With `NCc1ccc(N2CC(C(=O)O)OC2=O)cc1` (centres undefined) the figure was 211 to 212 °C; with `CCc1nc2c(C)cc(C)nc2n1-c1ccc(CC(C)OC(=O)NS(=O)(=O)c2ccc(C)cc2)cc1` (centres undefined), 108 °C; with `O=C(NCC12CC3CC(CC(C3)C1)C2)c1c(Cl)ccc2nc(N3CCC(C(=O)O)(c4ccccc4)CC3)ccc12`, 235 to 237 °C.
In turn, `CCOC(=O)C(=NO)c1ccc(Br)cc1` displayed a melting point of 163 to 164 °C.
With `COc1ccc(OC)c(CC(NC(=O)CC(C2CCCCC2)C2CCCCC2)C(=O)OC(C)(C)C)c1` (centres undefined) the figure was 108 to 111 °C.
